Measurements as given in patent publication US9724506B2, “Nanopillar electrode devices and methods of recording action potentials” (The Board of Trustees of the Leland Stanford Junior …, priority 2013, dated 2017).
Where “and” joins values, the source holds several entries; their conditions need not be identical. Identical values can stand only once.

Tested on: HL-1 cells
Test: Nanopillar electrode intracellular recording of HL-1 action potentials after electroporation, before and after ion-channel drug
Assay type: cell-based, mouse
Conditions: for APD50 after drug: 10 min incubation, 4 different HL-1 cells in 3 cultures, same cell recorded before and after drug; for APD50 change (%): APD50 after drug versus before drug on the same HL-1 cell
Procedure: The HL-1 cardiomyocyte cell line was obtained from the laboratory of William C. Claycomb at Louisiana State University. Before plating, the nanopillar electrode device was cleaned with detergent and deionized water, followed by 5 minutes of oxygen plasma treatment. The culture chamber was coated with 5 Δg ml^−1 fibronectin in 0.02% gelatin solution overnight to facilitate cell attachment (Claycomb et al. (1998) Proc. Natl. Acad. Sci. USA 95:2979-2984). HL-1 cells were then plated inside the chamber at a density of ˜1×10^5 cm^−2 and were maintained in the Claycomb medium supplemented with 10% fetal bovine serum, 0.1 mM norepinephrine, 2 mM L-glutamine and 100 U ml^−1 penicillin and 100 Δg ml^−1 streptomycin. The cells were maintained in a standard incubator at 37° C. and 5% CO2. Medium was changed every 24 hours. […] Fluorescent imaging of calcein dye was performed with a 470 nm excitation filter and a 525 nm emission filter.
A 60-channel voltage amplifier system (Multichannel System, MEA1060) was used to record HL-1 cells cultured on the nanopillar electrode arrays (nine nanopillars per array) after the cells started beating. Recording was performed in the same culture medium at 37° C. with an Ag/AgCl electrode in the medium as the reference electrode. The amplification was typically 110× for intracellular recording or 1,100× for extracellular recording, and the sampling rate was 5-20 kHz. The signal was filtered with a band-pass of 1 Hz-5 kHz. For electroporation, 20 biphasic pulses of 2.5 Vamp were applied to a nanopillar electrode in a total time of 1 second. The recording system was blanked during the electroporation period. Electrophysiology recordings were resumed 20-40 seconds after electroporation to avoid amplifier saturation.
For control experiments, we electroporated the cells to record action potentials in the absence of drugs. After the cells had recovered for a few hours, nifedipine or tetraethyl-ammonium of different concentrations was added to the culture medium and the cultures incubated for 10 minutes. Subsequently, another electroporation was applied to record the action potentials of the drug-treated cells.

[1] = 10 mM tetraethylammonium, HL-1 cells, versus control recording without drug (FIG. 5)

| SMILES | APD50 after drug (100 nM nifedepine) | APD50 change (%) (100 nM nifedepine) | APD50 after drug (1 mM tetraethylammonium) | APD50 change (%) (1 mM tetraethylammonium) | APD50 [1] | action potential period [1] | APD50 relative to the control (FIG. 5c, four different HL-1 cells on three different cultures per drug) |
| --- | --- | --- | --- | --- | --- | --- | --- |
| COC(=O)C1=C(C)NC(C)=C(C(=O)OC)C1c1ccccc1[N+](=O)[O-] [nifedipine] | 41.52 ms and 43.40 ms and 40.92 ms and 33.39 ms | 93.8% and 93.6% and 94.0% and 92.9% | – | – | – | – | – |
| CC[N+](CC)(CC)CC [tetraethylammonium] | – | – | 50.54 ms and 45.74 ms and 48.78 ms and 54.93 ms | 109.9% and 110.5% and 111.1% and 109.8% | increasing APD50 | decreasing the period | increase |
